Measured values taken from US20100004267A1, “LIQUID PREPARATION” (ASUBIO PHARMA CO., LTD., priority 2006, published 2010).
Where a name gives a salt, the structure may show the parent alone.

Experiments:
[1] = Likelihood of formation of insoluble aggregate with free base among counter ions; assay type: physicochemical; settings: estimated from the inventors' examinations
[2] = Examination of antioxidant: storage at 60° C. (Test example 3); assay type: physicochemical
Experimental: In this examination, hydrochloride of the compound of formula (I) was used instead of SUN N8075. Approximately 400 mg of the hydrochloride of compound of formula (I) were precisely weighed and water was added to make the volume precisely 200 mL, which was provided as an original drug aqueous solution.
Approximately 400 mg of each antioxidant shown in Table 3 below were precisely weighed and dissolved by adding 20 mL of water. As to butylhydroxy anisole, 10.7 mg was precisely weighed and dissolved in 100 mL of water.
15 mL of each antioxidant solution was mixed with 15 mL of solution of drug substance to prepare a stock sample (in the sample, the concentration of the hydrochloride compound of formula (I) corresponds to 1 mg/mL and the concentration of antioxidant corresponds to 10 mg/mL).
After dispensing each stock sample into 15 brown glass ampules, the ampules were sealed and stored at 60° C.
As a control sample, 15 mL of solution of drug substance added with 15 mL of water were stored in the same condition.
The remaining three ampules for each sample solution were used for measurement at the start of tests.
Each prepared sample was sampled in time series. 1 mL of sample solution was precisely measured, change in appearance and solution state of the sample were observed, and then added with methanol to make the volume precisely 10 mL. For this solution, residual percentage of the hydrochloride of compound of formula (I) was calculated by HPLC method. Furthermore, the pH value of the sample solution remaining after completion of test was measured.

[3] = Butyl hydroxy anisole, at start
[4] = L-Cysteine HCl monohydrate 10 mg/mL, 1 day
[5] = L-Cysteine HCl monohydrate 10 mg/mL, 7 days
[6] = L-Cysteine HCl monohydrate 10 mg/mL, 21 days
[7] = L-Cysteine HCl monohydrate 10 mg/mL, at start
[8] = Sodium bisulfite 10 mg/mL, 1 day
[9] = Sodium bisulfite 10 mg/mL, 7 days
[10] = Sodium bisulfite 10 mg/mL, 21 days
[11] = Sodium bisulfite 10 mg/mL, at start
[12] = Sodium edetate 10 mg/mL, 7 days
[13] = Sodium edetate 10 mg/mL, 21 days
[14] = Sodium edetate 10 mg/mL, at start
[15] = Sodium pyrosulfite 10 mg/mL, 1 day
[16] = Sodium pyrosulfite 10 mg/mL, 7 days
[17] = Sodium pyrosulfite 10 mg/mL, 21 days
[18] = Sodium pyrosulfite 10 mg/mL, at start
[19] = α-Thioglycerol 10 mg/mL, 7 days
[20] = α-Thioglycerol 10 mg/mL, 21 days
[21] = α-Thioglycerol 10 mg/mL, at start

Cc1cc(OC[C@@H](O)CN2CCN(c3ccc(Cc4ccc(F)cc4)cc3)CC2)c(C)c(C)c1N [compound represented by the formula (I), (2S)-1-(4-amino-2,3,5-trimethylphenoxy)-3-{4-[4-(4-fluorobenzyl)phenyl]-1-piperazinyl}-2-propanol]
Order of likelihood of formation of insoluble aggregate with free base among various counter ions [1]: sulfate ion>sulfite (or bisulfite ion)>>phosphate ion (or hydrogen phosphate ion, dihydrogen phosphate ion)>acetate ion>chloride ion>methane sulfonate ion

Cc1cc(OC[C@@H](O)CN2CCN(c3ccc(Cc4ccc(F)cc4)cc3)CC2)c(C)c(C)c1N [hydrochloride of compound of formula (I)]
Appearance ([2]; Butyl hydroxy anisole (10.7 mg in 100 mL stock), at start): colorless and clear
Appearance ([2]; Butyl hydroxy anisole, 1 day): colorless and clear
Purity ([2]; Butyl hydroxy anisole, 1 day): 96.8%
Residual degree ([2]; Butyl hydroxy anisole, 1 day): 99.2%
pH ([2]; Butyl hydroxy anisole, 1 day): 2.8
Appearance ([2]; Butyl hydroxy anisole, 7 days): colorless and clear
Purity ([2]; Butyl hydroxy anisole, 7 days): 80.6%
Residual degree ([2]; Butyl hydroxy anisole, 7 days): 80.3%
pH ([2]; Butyl hydroxy anisole, 7 days): 2.8
Appearance ([2]; Butyl hydroxy anisole, 21 days): Brown precipitates
Purity ([2]; Butyl hydroxy anisole, 21 days): 53.5%
Residual degree ([2]; Butyl hydroxy anisole, 21 days): 41.2%
pH ([2]; Butyl hydroxy anisole, 21 days): 2.8
Purity [2, 3]: 100%
Residual degree [2, 3]: 100%
pH [2, 3]: 2.8
Appearance ([2]; Citric acid 10 mg/mL, 1 day): colorless and clear
Purity ([2]; Citric acid 10 mg/mL, 1 day): 99.2%
Residual degree ([2]; Citric acid 10 mg/mL, 1 day): 98.0%
pH ([2]; Citric acid 10 mg/mL, 1 day): 2.2
Appearance ([2]; Citric acid 10 mg/mL, 7 days): colorless and clear
Purity ([2]; Citric acid 10 mg/mL, 7 days): 88.6%
Residual degree ([2]; Citric acid 10 mg/mL, 7 days): 89.8%
pH ([2]; Citric acid 10 mg/mL, 7 days): 2.2
Appearance ([2]; Citric acid 10 mg/mL, 21 days): colorless and clear
Purity ([2]; Citric acid 10 mg/mL, 21 days): 63.6%
Residual degree ([2]; Citric acid 10 mg/mL, 21 days): 57.3%
pH ([2]; Citric acid 10 mg/mL, 21 days): 2.2
Appearance ([2]; Citric acid 10 mg/mL, at start): colorless and clear
Purity ([2]; Citric acid 10 mg/mL, at start): 100%
Residual degree ([2]; Citric acid 10 mg/mL, at start): 100%
pH ([2]; Citric acid 10 mg/mL, at start): 2.1
Appearance [2, 4]: colorless and clear
Purity [2, 4]: 100%
Residual degree [2, 4]: 97.9%
pH [2, 4]: 1.7
Appearance [2, 5]: colorless and clear
Purity [2, 5]: 99.7%
Residual degree [2, 5]: 100.6%
pH [2, 5]: 1.7
Appearance [2, 6]: colorless and clear
Purity [2, 6]: 99.6%
Residual degree [2, 6]: 94.0%
pH [2, 6]: 1.7
Appearance [2, 7]: colorless and clear
Purity [2, 7]: 100%
Residual degree [2, 7]: 100%
pH [2, 7]: 1.7
Appearance ([2]; No additive, 1 day): colorless and clear
Purity ([2]; No additive, 1 day): 98.4%
Residual degree ([2]; No additive, 1 day): 98.7%
pH ([2]; No additive, 1 day): 2.8
Appearance ([2]; No additive, 7 days): colorless and clear
Purity ([2]; No additive, 7 days): 82.5%
Residual degree ([2]; No additive, 7 days): 84.4%
pH ([2]; No additive, 7 days): 3.0
Appearance ([2]; No additive, 21 days): colorless and clear
Purity ([2]; No additive, 21 days): 51.2%
Residual degree ([2]; No additive, 21 days): 43.1%
pH ([2]; No additive, 21 days): 2.9
Appearance ([2]; No additive, at start): colorless and clear
Purity ([2]; No additive, at start): 100%
Residual degree ([2]; No additive, at start): 100%
pH ([2]; No additive, at start): 2.8
Appearance [2, 8]: colorless and clear
Purity [2, 8]: 98.5%
Residual degree [2, 8]: 99.9%
pH [2, 8]: 3.2
Appearance [2, 9]: colorless and clear
Purity [2, 9]: 98.3%
Residual degree [2, 9]: 97.3%
pH [2, 9]: 2.8
Appearance [2, 10]: colorless and clear
Purity [2, 10]: 98.4%
Residual degree [2, 10]: 91.2%
pH [2, 10]: 2.8
Appearance [2, 11]: colorless and clear
Purity [2, 11]: 97.2%
Residual degree [2, 11]: 100%
pH [2, 11]: 3.5
Appearance ([2]; Sodium edetate 10 mg/mL, 1 day): colorless and clear
Purity ([2]; Sodium edetate 10 mg/mL, 1 day): 97.9%
Residual degree ([2]; Sodium edetate 10 mg/mL, 1 day): 94.1%
pH ([2]; Sodium edetate 10 mg/mL, 1 day): 3.8
Appearance [2, 12]: colorless and clear
Purity [2, 12]: 81.2%
Residual degree [2, 12]: 68.5%
pH [2, 12]: 4.1
Appearance [2, 13]: colorless and clear
Purity [2, 13]: 53.8%
Residual degree [2, 13]: 31.9%
pH [2, 13]: 4.2
Appearance [2, 14]: colorless and clear
Purity [2, 14]: 100%
Residual degree [2, 14]: 100%
pH [2, 14]: 4.0
Appearance [2, 15]: colorless and clear
Purity [2, 15]: 98.2%
Residual degree [2, 15]: 102.4%
pH [2, 15]: 3.1
Appearance [2, 16]: colorless and clear
Purity [2, 16]: 97.3%
Residual degree [2, 16]: 97.2%
pH [2, 16]: 2.9
Appearance [2, 17]: colorless and clear
Purity [2, 17]: 97.6%
Residual degree [2, 17]: 89.8%
pH [2, 17]: 2.7
Appearance [2, 18]: colorless and clear
Purity [2, 18]: 94.4%
Residual degree [2, 18]: 100%
pH [2, 18]: 3.6
Appearance ([2]; α-Thioglycerol 10 mg/mL, 1 day): colorless and clear
Purity ([2]; α-Thioglycerol 10 mg/mL, 1 day): 100%
Residual degree ([2]; α-Thioglycerol 10 mg/mL, 1 day): 97.5%
pH ([2]; α-Thioglycerol 10 mg/mL, 1 day): 2.8
Appearance [2, 19]: colorless and clear
Purity [2, 19]: 99.2%
Residual degree [2, 19]: 97.1%
pH [2, 19]: 2.8
Appearance [2, 20]: colorless and clear
Purity [2, 20]: 96.8%
Residual degree [2, 20]: 89.0%
pH [2, 20]: 2.8
Appearance [2, 21]: colorless and clear
Purity [2, 21]: 100%
Residual degree [2, 21]: 100%
pH [2, 21]: 2.7
